Experimental findings from US9957264B2 (Merck Sharp & Dohme Corp., priority 2013, dated 2018) are described below.

The target of test [1] is JAK1 (recombinant purified GST-tagged catalytic domain) (Homo sapiens (Human), UniProt P23458). Description: Jak Biochemical HTRF Assay (JAK1). The conditions noted are these: [ATP] 31.8 μM. The essentials:
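Read-out is the 665/615 nm time-resolved FRET ratio from Eu-pY20 antibody and streptavidin-Dylight 650 bound to phosphorylated biotin-peptide. Reactions ran 120 min at room temperature after ATP start. Inhibition normalized to untreated controls gave IC50 via 4-parameter fit.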
A general note: Time-resolved FRET reads energy transfer from a long-lived donor to a nearby acceptor.

Test [2] concerns the target JAK2 (recombinant purified GST-tagged catalytic domain) (Homo sapiens (Human), UniProt O60674). The test is described as follows: Jak Biochemical HTRF Assay (JAK2). The conditions noted are these: [ATP] 8.5 μM.

Each structure is given as a SMILES string.

Sequence of JAK1 (recombinant purified GST-tagged catalytic domain) (P23458 875-1153): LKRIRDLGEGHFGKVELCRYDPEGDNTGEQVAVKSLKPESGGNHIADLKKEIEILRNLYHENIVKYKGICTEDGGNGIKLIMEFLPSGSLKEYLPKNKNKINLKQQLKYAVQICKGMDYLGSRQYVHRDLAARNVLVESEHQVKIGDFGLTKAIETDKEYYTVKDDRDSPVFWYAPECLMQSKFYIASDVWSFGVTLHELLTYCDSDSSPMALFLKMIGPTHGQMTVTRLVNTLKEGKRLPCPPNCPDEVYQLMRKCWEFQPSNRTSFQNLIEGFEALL
Sequence of JAK2 (recombinant purified GST-tagged catalytic domain) (O60674 849-1124): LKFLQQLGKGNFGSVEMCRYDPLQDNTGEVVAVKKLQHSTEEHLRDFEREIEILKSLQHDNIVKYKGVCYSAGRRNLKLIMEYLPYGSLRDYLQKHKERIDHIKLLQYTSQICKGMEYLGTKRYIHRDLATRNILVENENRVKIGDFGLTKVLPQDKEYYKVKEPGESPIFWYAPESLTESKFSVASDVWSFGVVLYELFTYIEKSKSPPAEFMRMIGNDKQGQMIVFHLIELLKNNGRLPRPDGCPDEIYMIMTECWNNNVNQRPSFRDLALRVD

Usually IC50 stands for the concentration that gives 50% inhibition. For the compound `COC(=O)[C@H]1CC[C@](CC#N)(n2nc(Nc3ccc(S(C)(=O)=O)cc3)c3c(=O)[nH]ccc32)CO1` (single isomer, unassigned) [Example 5-34, (2S,5S or 2R,5R)-methyl 5-(cyanomethyl)-5-(3-((4-(methylsulfonyl)phenyl)amino)-4-oxo-4,5-dihydro-1H-pyrazolo[4,3-c]pyridin-1-yl)tetrahydro-2H-pyran-2-carboxylate], the values for the IC50 in test [1] and in test [2] were 4.74 nM and 22.6 nM, respectively.

Take `COC1CN([C@H]2CC[C@](CC#N)(n3nc(Nc4ccc(OC(F)(F)F)cc4)c4c(=O)[nH]ccc43)CC2)C1` [Example 18-16, Trans 2-(4-(3-methoxyazetidin-1-yl)-1-(4-oxo-3-((4-(trifluoromethoxy)phenyl)amino)-4,5-dihydro-1H-pyrazolo[4,3-c]pyridin-1-yl)cyclohexyl)acetonitrile]: the figures for the IC50 in test [1] and in test [2] were 0.15 nM and 1.43 nM, respectively.

Turning to `CC(C)NC(c1ccc(Nc2nn([C@]3(CC#N)CCCOC3)c3cc[nH]c(=O)c23)cc1)C(F)(F)F` (single isomer, unassigned) [Example 5-206, [(3S)-3-{4-oxo-3-[(4-{(1S or 1R)-2,2,2-trifluoro-1-[(1-methylethyl)amino]ethyl}phenyl)amino]-4,5-dihydro-1H-pyrazolo [4,3-c]pyridin-1-yl}tetrahydro-2H-pyran-3-yl]acetonitrile], the IC50 is 0.13 nM in test [1] and 0.16 nM in test [2].

On to `CC(C)(C)OC(=O)N1CC[C@](CC#N)(n2nc(Nc3ccc([C@H](O)C(F)(F)F)cc3)c3c(=O)[nH]ccc32)[C@H](F)C1` (single isomer, unassigned) [Example 5-20, tert-butyl (3R,4R)-4-(cyanomethyl)-3-fluoro-4-[4-oxo-3-({4-[(1S or 1R)-2,2,2-trifluoro-1-hydroxyethyl]phenyl}amino)-4,5-dihydro-1H-pyrazolo [4,3-c]pyridin-1-yl] piperidine-1-carboxylate], for which the figures for the IC50 in test [1] and in test [2] were 0.15 nM and 0.12 nM, respectively.

With `N#CCC1(n2nc(Nc3ccc(C#N)cc3)c3c(=O)[nH]ccc32)CCCC1` [Example 5-124, 4-((1-(1-(cyanomethyl)cyclopentyl)-4-oxo-4,5-dihydro-1H-pyrazolo[4,3-c]pyridin-3-yl)amino) benzonitrile], the IC50 in test [1] amounted to 0.58 nM; in test [2] it was 3.69 nM.

Turning to `CC(C)(C)OC(=O)N1CCC(CC#N)(n2nc(Nc3ccc4c(c3)CN(C(C)(C)C)S4(=O)=O)c3c(=O)[nH]ccc32)CC1` [Example 5-23, tert-butyl 4-{3-[(2-tert-butyl-1,1-dioxido-2,3-dihydro-1,2-benzisothiazol-5-yl)amino]-4-oxo-4,5-dihydro-1H-pyrazolo[4,3-c]pyridin-1-yl}-4-(cyanomethyl)piperidine-1-carboxylate], the figures for the IC50 in test [1] and in test [2] were 0.24 nM and 0.34 nM, respectively.

For the compound `CCNc1nn(C2(CC#N)CCN(C(=O)OC(C)(C)C)CC2)c2cc[nH]c(=O)c12` [Example 2-1, tert-butyl 4-(cyanomethyl)-4-[3-(ethylamino)-4-oxo-4,5-dihydro-1H-pyrazolo[4,3-c]pyridin-1-yl]piperidine-1-carboxylate], the IC50 is 48.2 nM in test [1] and 60.3 nM in test [2].

Consider `CC(C)N(C)S(=O)(=O)c1ccc(Nc2nn([C@]3(CC#N)CC[C@@H](C(=O)OC(C)(C)C)OC3)c3cc[nH]c(=O)c23)cc1` [Example 5-91, (2S,5S)-tert-butyl 5-(cyanomethyl)-5-(3-((4-(N-isopropyl-N-methylsulfamoyl)phenyl)amino)-4-oxo-4,5-dihydro-1H-pyrazolo[4,3-c]pyridin-1-yl)tetrahydro-2H-pyran-2-carboxylate], for which the IC50 amounted to 0.14 nM in test [1] and 0.23 nM in test [2].

Take `CN(C)S(=O)(=O)c1ccc(Nc2nn(C3(CC#N)CCN(CCCc4ccccc4)CC3)c3cc[nH]c(=O)c23)cc1` [Example 8-15, 4-({1-[4-(cyanomethyl)-1-(3-phenylpropyl)piperidin-4-yl]-4-oxo-4,5-dihydro-1H-pyrazolo[4,3-c]pyridin-3-yl}amino)-N,N-dimethylbenzenesulfonamide]: the values for the IC50 in test [1] and in test [2] were 0.53 nM and 2.84 nM, respectively.

In the case of `CN(C(C)(C)C(=O)OC(C)(C)C)S(=O)(=O)c1ccc(Nc2nn(C3(CC#N)CCCC3)c3cc[nH]c(=O)c23)cc1` [Example 5-137, tert-butyl 2-(4-((1-(1-(cyanomethyl)cyclopentyl)-4-oxo-4,5-dihydro-1H-pyrazolo[4,3-c]pyridin-3-yl)amino)-N-methylphenylsulfonamido)-2-methylpropanoate], the values for the IC50 in test [1] and in test [2] were 1.9 nM and 5.85 nM, respectively.

`N#CC[C@]1(n2nc(Nc3ccc(Cl)c(F)c3)c3c(=O)[nH]ccc32)CC[C@H](Nc2ccccc2)CC1` [Example 18-26, Trans 2-(1-(3-((4-chloro-3-fluorophenyl)amino)-4-oxo-4,5-dihydro-1H-pyrazolo[4,3-c]pyridin-1-yl)-4-(phenylamino)cyclohexyl)acetonitrile]: the IC50 in test [1] turned out to be 2.48 nM; in test [2] it was 54.7 nM.

For `CC(C)S(=O)(=O)c1ccc(Nc2nn([C@]3(CC#N)CC[C@@H](C(=O)OC(C)(C)C)OC3)c3cc[nH]c(=O)c23)cc1` [Example 5-98, (2S,5S)-tert-butyl 5-(cyanomethyl)-5-(3-((4-(isopropylsulfonyl)phenyl)amino)-4-oxo-4,5-dihydro-1H-pyrazolo[4,3-c]pyridin-1-yl)tetrahydro-2H-pyran-2-carboxylate], the IC50 came to 0.07 nM in test [1] and 0.18 nM in test [2].

As to `CN(C)S(=O)(=O)c1ccc(Nc2nn(C3(CC#N)CCN(C(=O)O[C@H]4CCOC4)CC3)c3cc[nH]c(=O)c23)cc1` [Example 11-11, (S)-tetrahydrofuran-3-yl 4-(cyanomethyl)-4-(3-((4-(N,N-dimethylsulfamoyl)phenyl)amino)-4-oxo-4,5-dihydro-1H-pyrazolo[4,3-c]pyridin-1-yl)piperidine-1-carboxylate], the values for the IC50 in test [1] and in test [2] were 0.16 nM and 0.91 nM, respectively.

Regarding `CC(c1ccc(Nc2nn([C@]3(CC#N)CCCOC3)c3cc[nH]c(=O)c23)cc1)N1CCCC1` (single isomer, unassigned) [Example 5-201, {(3S)-3-[4-oxo-3-({4-[(1R or 1S)-1-pyrrolidin-1-ylethyl]phenyl}amino)-4,5-dihydro-1H-pyrazolo[4,3-c]pyridin-1-yl]tetrahydro-2H-pyran-3-yl}acetonitrile], the IC50 was determined as 0.49 nM in test [1] and 0.27 nM in test [2].

With `N#CC[C@]1(n2nc(Nc3ccc(OC(F)(F)F)cc3)c3c(=O)[nH]ccc32)CC[C@H](NC2CCCCC2)CC1` [Example 18-19, Trans 2-(4-(cyclohexylamino)-1-(4-oxo-3-((4-(trifluoromethoxy)phenyl)amino)-4,5-dihydro-1H-pyrazolo[4,3-c]pyridin-1-yl)cyclohexyl)acetonitrile], the IC50 was 0.37 nM in test [1] and 36.6 nM in test [2].

In the case of `Cc1cc(Nc2nn(C3(CC#N)CCN(C(=O)OC(C)(C)C)CC3)c3cc[nH]c(=O)c23)ccc1C(=O)N1CCC(F)(F)CC1` [Example 21-11, tert-butyl 4-(cyanomethyl)-4-(3-((4-(4,4-difluoropiperidine-1-carbonyl)-3-methylphenyl)amino)-4-oxo-4,5-dihydro-1H-pyrazolo[4,3-c]pyridin-1-yl)piperidine-1-carboxylate], the figures for the IC50 in test [1] and in test [2] were 0.43 nM and 0.38 nM, respectively.

Regarding `CC(C)OC(=O)C(C)(C)C(O)(c1ccc(Nc2nn([C@]3(CC#N)CC[C@@H](C(=O)OC(C)(C)C)OC3)c3cc[nH]c(=O)c23)cc1)C(F)(F)F` (single isomer, unassigned) [Example 5-163, (2S,5S)-tert-butyl 5-(cyanomethyl)-5-(4-oxo-3-((4-((S or R)-1,1,1-trifluoro-2-hydroxy-4-isopropoxy-3,3-dimethyl-4-oxobutan-2-yl)phenyl)amino)-4,5-dihydro-1H-pyrazolo[4,3-c]pyridin-1-yl)tetrahydro-2H-pyran-2-carboxylate], the IC50 in test [1] came out at 1.96 nM; in test [2], 2.21 nM.

Take `CC(C)(C)OC(=O)C(C)(C)N1Cc2cc(Nc3nn(C4(CC#N)CCCC4)c4cc[nH]c(=O)c34)ccc2C1=O` [Example 5-140, tert-butyl 2-(5-((1-(1-(cyanomethyl)cyclopentyl)-4-oxo-4,5-dihydro-1H-pyrazolo[4,3-c]pyridin-3-yl)amino)-1-oxoisoindolin-2-yl)-2-methylpropanoate]: the values for the IC50 in test [1] and in test [2] were 0.32 nM and 0.74 nM, respectively.

As to `CC(C)(C)OC(=O)[C@@H]1CC[C@@](CC#N)(n2nc(Nc3ccc(C4(C(F)(F)F)CCCCN4)cc3)c3c(=O)[nH]ccc32)CO1` (single isomer, unassigned) [Example 5-286, (2S,5S)-tert-butyl 5-(cyanomethyl)-5-(4-oxo-3-((4-((S or R)-2-(trifluoromethyl)piperidin-2-yl)phenyl)amino)-4,5-dihydro-1H-pyrazolo[4,3-c]pyridin-1-yl)tetrahydro-2H-pyran-2-carboxylate], the values for the IC50 in test [1] and in test [2] were 0.24 nM and 0.33 nM, respectively.

`CC(C)(C)OC(=O)[C@@H]1CC[C@@](CC#N)(n2nc(Nc3ccc4c(c3)CC(C)(C)C4(O)C(F)(F)F)c3c(=O)[nH]ccc32)CO1` (single isomer, unassigned) [Example 5-165, (2S,5S)-tert-butyl 5-(cyanomethyl)-5-(3-(((S or R)-1-hydroxy-2,2-dimethyl-1-(trifluoromethyl)-2,3-dihydro-1H-inden-5-yl)amino)-4-oxo-4,5-dihydro-1H-pyrazolo[4,3-c]pyridin-1-yl)tetrahydro-2H-pyran-2-carboxylate]: the IC50 in test [1] is 0.46 nM; in test [2], 1 nM.

Turning to `Cc1cc(Nc2nn([C@]3(CC#N)CCCOC3)c3cc[nH]c(=O)c23)ccc1C(=O)N1CC[C@@H](F)C1` [Example 5-115, 2-((S)-3-(3-((4-((R)-3-fluoropyrrolidine-1-carbonyl)-3-methylphenyl)amino)-4-oxo-4,5-dihydro-1H-pyrazolo[4,3-c]pyridin-1-yl)tetrahydro-2H-pyran-3-yl)acetonitrile], the IC50 stood at 0.33 nM in test [1] and 0.99 nM in test [2].
